Data from ChEMBL document CHEMBL1153442, “Synthesis and in vitro evaluation of sulfonamide isatin Michael acceptors as small molecule inhibitors of caspase-6” (J Med Chem, 2009).

Columns and labels:
Caspase-1 = biological target: T1, Caspase-1 (Homo sapiens, UniProt P29466); assay: Inhibition of human recombinant caspase 1 assessed as accumulation of fluorogenic product by fluorometric assay
T1 sequence (P29466 whole entry): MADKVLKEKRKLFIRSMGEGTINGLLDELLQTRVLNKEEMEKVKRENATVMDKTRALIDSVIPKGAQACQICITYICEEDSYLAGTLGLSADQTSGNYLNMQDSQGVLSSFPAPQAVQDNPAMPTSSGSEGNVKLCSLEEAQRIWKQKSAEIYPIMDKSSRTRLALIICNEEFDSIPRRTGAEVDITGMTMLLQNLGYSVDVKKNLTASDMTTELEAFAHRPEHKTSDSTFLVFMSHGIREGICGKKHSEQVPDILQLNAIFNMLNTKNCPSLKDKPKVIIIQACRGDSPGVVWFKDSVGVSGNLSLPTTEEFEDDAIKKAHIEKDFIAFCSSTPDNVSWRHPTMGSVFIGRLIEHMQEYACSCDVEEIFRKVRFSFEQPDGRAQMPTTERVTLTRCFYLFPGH

Caspase-3 = biological target: T2, Caspase-3 (Homo sapiens, UniProt P42574); assay: Inhibition of human recombinant caspase 3 assessed as accumulation of fluorogenic product by fluorometric assay
T2 sequence (P42574 whole entry): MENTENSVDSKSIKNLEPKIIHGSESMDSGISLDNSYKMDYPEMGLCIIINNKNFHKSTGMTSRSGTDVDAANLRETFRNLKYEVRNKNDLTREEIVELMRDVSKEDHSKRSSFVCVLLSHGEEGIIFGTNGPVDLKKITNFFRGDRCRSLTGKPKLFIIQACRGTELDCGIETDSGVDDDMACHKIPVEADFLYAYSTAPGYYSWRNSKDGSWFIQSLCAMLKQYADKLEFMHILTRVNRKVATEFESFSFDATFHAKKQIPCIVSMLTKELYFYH

Caspase-6 = biological target: T3, Caspase-6 (Homo sapiens, UniProt P55212); assay: Inhibition of human recombinant caspase 6 assessed as accumulation of fluorogenic product by fluorometric assay
T3 sequence (P55212 whole entry): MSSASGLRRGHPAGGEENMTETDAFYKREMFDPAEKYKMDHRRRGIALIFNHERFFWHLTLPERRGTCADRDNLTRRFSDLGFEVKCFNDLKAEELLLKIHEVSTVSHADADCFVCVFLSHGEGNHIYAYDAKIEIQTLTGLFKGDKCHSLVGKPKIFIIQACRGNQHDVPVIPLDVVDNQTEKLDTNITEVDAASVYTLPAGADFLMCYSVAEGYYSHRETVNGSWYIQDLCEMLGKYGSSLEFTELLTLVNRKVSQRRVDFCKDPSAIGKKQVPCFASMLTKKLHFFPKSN

Caspase-7 = biological target: T4, Caspase-7 (Homo sapiens, UniProt P55210); assay: Inhibition of human recombinant caspase 7 assessed as accumulation of fluorogenic product by fluorometric assay
T4 sequence (P55210 whole entry): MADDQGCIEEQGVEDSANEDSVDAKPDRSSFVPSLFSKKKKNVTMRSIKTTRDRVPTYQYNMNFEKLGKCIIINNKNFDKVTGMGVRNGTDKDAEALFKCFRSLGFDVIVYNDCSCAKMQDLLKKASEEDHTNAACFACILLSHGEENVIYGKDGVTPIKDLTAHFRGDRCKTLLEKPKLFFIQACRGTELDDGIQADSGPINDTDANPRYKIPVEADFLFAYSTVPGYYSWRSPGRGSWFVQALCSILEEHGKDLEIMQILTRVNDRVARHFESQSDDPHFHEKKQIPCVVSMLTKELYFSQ

Caspase-8 = Caspase-8 (Homo sapiens, UniProt Q14790); assay: Inhibition of human recombinant caspase 8 assessed as accumulation of fluorogenic product by fluorometric assay
Homo sapiens = species on record: Homo sapiens; assay: Selectivity for human recombinant caspase 3 over human recombinant caspase 6

Sequence of Caspase-8 (Q14790 217-374 limits assumed): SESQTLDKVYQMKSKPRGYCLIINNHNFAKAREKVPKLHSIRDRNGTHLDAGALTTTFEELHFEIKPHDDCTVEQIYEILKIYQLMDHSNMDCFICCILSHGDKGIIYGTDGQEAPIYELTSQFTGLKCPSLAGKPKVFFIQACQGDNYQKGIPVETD
Sequence of Caspase-8 (Q14790 385-479 limits assumed): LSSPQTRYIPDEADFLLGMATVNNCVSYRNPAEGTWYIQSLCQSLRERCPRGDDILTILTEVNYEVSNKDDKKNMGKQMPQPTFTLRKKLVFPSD

| IC50 (Caspase-1) | IC50 (Caspase-3) | IC50 (Caspase-6) | IC50 (Caspase-7) | IC50 (Caspase-8) | fold change (FC) (Homo sapiens) | Structure (SMILES) |
| --- | --- | --- | --- | --- | --- | --- |
| 3.3 µM | 323 nM | 156 nM | 248 nM | > 50 µM | – | N#CC(C#N)=C1C(=O)N(Cc2ccccc2)c2ccc(S(=O)(=O)N3CCC3)cc21 |
| 6.82 µM | 4630 nM | 453 nM | 4100 nM | > 50 µM | – | COc1ccc(CN2C(=O)C(=C(C#N)C#N)c3cc(S(=O)(=O)N4CCOCC4)ccc32)cc1 |
| 4.7 µM | 671 nM | 241 nM | 587 nM | > 50 µM | – | N#CC(C#N)=C1C(=O)N(Cc2ccccc2)c2ccc(S(=O)(=O)N3CCCC3)cc21 |
| 4.18 µM | 718 nM | 197 nM | 471 nM | > 50 µM | – | COc1ccc(CN2C(=O)C(=C(C#N)C#N)c3cc(S(=O)(=O)N4CCC4)ccc32)cc1 |
| > 10 µM | 365 nM | 280 nM | 340 nM | > 50 µM | – | N#CC(C#N)=C1C(=O)N(Cc2ccc(Cl)c(Cl)c2)c2ccc(S(=O)(=O)N3CCC3)cc21 |
| – | 4700 nM | 425 nM | 4470 nM | > 50 µM | – | N#CC(C#N)=C1C(=O)N(Cc2ccccc2)c2ccc(S(=O)(=O)N3CCOCC3)cc21 |
| 4.7 µM | 673 nM | 358 nM | 443 nM | > 50 µM | – | COc1ccc(CN2C(=O)C(=C(C#N)C#N)c3cc(S(=O)(=O)N4CCCC4)ccc32)cc1 |
| 4.3 µM | 1670 nM | 188 nM | 1890 nM | > 50 µM | – | COc1ccc(CN2C(=O)C(=C(C#N)C#N)c3cc(S(=O)(=O)N4CCSCC4)ccc32)cc1 |
| – | – | – | 2.95 nM | – | – | CC(=O)N[C@@H](CC(=O)O)C(=O)N[C@@H](CCC(=O)O)C(=O)N[C@H](C(=O)N[C@H](C=O)CC(=O)O)C(C)C |
| > 25 µM | 1430 nM | > 15000 nM | 2230 nM | > 50 µM | – | O=C1C(=O)N(Cc2ccc(Cl)c(Cl)c2)c2ccc(S(=O)(=O)N3CCOCC3)cc21 |
| – | 583 nM | 325 nM | 878 nM | > 50 µM | – | N#CC(C#N)=C1C(=O)N(Cc2ccccc2)c2ccc(S(=O)(=O)N3CCCCC3)cc21 |
| > 10 µM | 1400 nM | 545 nM | 1150 nM | > 50 µM | – | COc1ccc(CN2C(=O)C(=C(C#N)C#N)c3cc(S(=O)(=O)N4CCCCC4)ccc32)cc1 |
| > 25 µM | > 20000 nM | > 20000 nM | > 20000 nM | > 50 µM | – | O=C1Nc2ccc(S(=O)(=O)N3CCOCC3)cc2C1=O |
| > 10 µM | 114 nM | 9830 nM | 132 nM | > 50 µM | – | O=C1C(=O)N(Cc2ccccc2)c2ccc(S(=O)(=O)N3CCC3)cc21 |
| – | 14.5 nM | > 5000 nM | – | – | – | O=C1C(=O)N(Cc2ccccc2)c2ccc(S(=O)(=O)N3CCC[C@H]3COc3ccccc3)cc21 |
| > 10 µM | 529 nM | 568 nM | 3420 nM | > 50 µM | – | N#CC(C#N)=C1C(=O)N(Cc2ccc(Cl)c(Cl)c2)c2ccc(S(=O)(=O)N3CCCCC3)cc21 |
| 5.35 µM | 1550 nM | 592 nM | 7900 nM | > 50 µM | – | N#CC(C#N)=C1C(=O)N(Cc2ccc(Cl)c(Cl)c2)c2ccc(S(=O)(=O)N3CCOCC3)cc21 |
| 5.35 µM | 1990 nM | 230 nM | 5100 nM | > 50 µM | – | N#CC(C#N)=C1C(=O)N(Cc2ccc(Cl)c(Cl)c2)c2ccc(S(=O)(=O)N3CCSCC3)cc21 |
| > 10 µM | 724 nM | 468 nM | 471 nM | > 50 µM | – | N#CC(C#N)=C1C(=O)N(Cc2ccc(Cl)c(Cl)c2)c2ccc(S(=O)(=O)N3CCCC3)cc21 |
| 4.58 µM | 1450 nM | 151 nM | 1620 nM | > 50 µM | – | N#CC(C#N)=C1C(=O)N(Cc2ccccc2)c2ccc(S(=O)(=O)N3CCSCC3)cc21 |
| > 10 µM | 1030 nM | 12800 nM | 1480 nM | > 50 µM | 10 | O=C1C(=O)N(Cc2ccccc2)c2ccc(S(=O)(=O)N3CCSCC3)cc21 |
